{"source": "patent US20250114389A1", "about": "“NUCLEOSIDES AND NUCLEOTIDES ANALOGS AS ANTIVIRAL AGENTS” (Emory University, priority 2021, published 2025)", "key": {"[1]": {"assay": "Cytotoxicity in PBM cells", "format": "cell-based, human", "settings": "human", "method": "(§1) The toxicity of the compounds was assessed in Vero, human PBM, CEM (human lymphoblastoid), MT-2, and HepG2 cells, as described previously (see Schinazi R. F., Sommadossi J.-P., Saalmann V., Cannon D. L., Xie M.-Y., Hart G. C., Smith G. A. & Hahn E. F. Antimicrob. Agents Chemother. 1990, 34, 1061-67). Cycloheximide was included as positive cytotoxic control, and untreated cells exposed to solvent were included as negative controls. The cytotoxicity IC50 was obtained from the concentration-response curve using the median effective method described previously (see Chou T.-C. & Talalay P. Adv. Enzyme Regul. 1984, 22, 27-55; Belen'kii M. S. & Schinazi R. F. Antiviral Res. 1994, 25, 1-11)."}, "[2]": {"format": "in vitro ADME", "settings": "10 μM", "method": "An aliquot of 450 μL of human, mouse or hamster plasma were exposed to 10 μM of compound and incubated at 37° C. At 0, 5, 15, 30, 60, 90 and 120 min, 50 μL of plasma sample was mixed with 200 μL of ice-cold methanol (70%). 50 μL supernatant was dried and reconstituted in 100 μL H2O. Propantheline bromide was used as positive control. The supernatant was then subjected to LC-MS analysis (LC-MS condition: Instrument: Thermo TSQ Quantiva. Column: Kinetex […] (50×2.1 mm, […]). LC buffers: A): 0.1% formic acid, and B): acetonitrile. MRM methods: (269.2-112 positive), Indinavir (IS, 614.4-421.2 positive, IS)). The stability results are shown in FIGS. 2-4 (human plasma, mouse plasma and hamster plasma, respectively). Compound A is stable in human and mouse plasma up to 2 hours and stable up to […] in hamster plasma. Compound 23 was converted to compound A in hamster plasma in less than 5 min."}, "in vitro [3]": {"assay": "in vitro", "settings": "human, Caco-2"}, "[4]": {"assay": "Quantification of Compound A in mouse lung, brain and plasma", "format": "in vivo, CD-1 mice", "settings": "for concentration at 7 h / Brain concentration / Lung concentration: 7 h; for Plasma concentration, average / Plasma concentration: assuming density 1 g/mL", "method": "CD-1 mice were treated with Compound A PO (30 mg/kg, 3 mice) or IV (15 mg/kg, 3 mice). Lung and brain samples were collected at 7 h.\nLung and brain samples were homogenized with 5× volume of 20% MeOH.\n50 μL tissue homogenate was mixed with 250 μL MeOH (containing 40 nM indinavir as IS).\nThe supernatant was air-dried, then reconstituted in 150 μL of H2O.\nSubjected to LC-MS analysis.\nCalibration curve range: 30 nM to 30 μM.\nInstrument: TSQ Quantiva, Column: Kinetex XB—C8 (50×2.1 mm, 2.6 μm)\nLC buffers: A): 0.1% formic acid, and B): Acetonitrile\nMRM methods: Compound A (269.2→112 positive), Indinavir (IS, 614.4→421.2 positive, IS)"}, "[5]": {"assay": "Cytotoxicity in CEM cells", "format": "cell-based, human", "settings": "human, CEM lymphoblastoid cells", "method": "as §1"}, "SARS-CoV-2 [6]": {"test_system": "SARS-CoV-2", "assay": "Anti-SARS-CoV-2 activity in Calu3 cells (virus yield inhibition)", "format": "cell-based", "settings": "Severe acute respiratory syndrome coronavirus 2, Calu-3, Table 1"}, "in vitro [7]": {"assay": "in vitro", "settings": "human"}, "SARS-CoV-2 [8]": {"test_system": "SARS-CoV-2", "assay": "Anti-SARS-CoV-2 activity in Caco2 cells (virus yield inhibition)"}, "SARS-CoV-2 [9]": {"test_system": "SARS-CoV-2", "assay": "Anti-SARS-CoV-2 activity in HAE-ALI culture", "format": "cell-based", "settings": "Severe acute respiratory syndrome coronavirus 2; HAE air-liquid interface"}, "Omicron [10]": {"test_system": "Omicron", "assay": "microbe, parasite or virus in culture"}, "Omicron [11]": {"test_system": "Omicron", "assay": "Anti-Omicron activity in Calu-3", "format": "cell-based, SARS-CoV-2", "settings": "Severe acute respiratory syndrome coronavirus 2"}, "[12]": {"assay": "Cytotoxicity in Huh7 cells", "format": "cell-based", "settings": "human"}, "[13]": {"assay": "Multi-dose range-finding study in Golden Syrian hamsters", "settings": "hamster, in vivo, po, 30 mg/kg", "method": "Multi-dose range-finding study in Golden Syrian Hamsters: 3 male Syrian hamsters were given 30 mg/kg of compound A by oral gavage daily for 7 days. The body weight of each of the individual hamsters during the nucleoside analog treatment was measured (grams per day) over a 7 day period. […] The body temperature of the hamsters was also measured over the course of the treatment in two of the hamsters (FIG. 9, Rodent 1 and Rodent 2). The third hamster lost the chip, and, despite re-chipping, temperatures were still not recording.\nDaily observations of the hamsters were taken, particularly with respect to their ability to eat and drink normally, and other behavior and activity ratings (B.A.R.), and the observations are summarized below in Table 10."}, "SARS-CoV-2 [14]": {"test_system": "SARS-CoV-2", "assay": "Anti-SARS-CoV-2 activity in Vero cells (virus yield inhibition)", "format": "cell-based"}, "SARS-CoV-2 [15]": {"test_system": "SARS-CoV-2", "assay": "Anti-SARS-CoV-2 activity in Calu3 ALI culture", "format": "cell-based", "settings": "Severe acute respiratory syndrome coronavirus 2, Calu-3; Calu3 air-liquid interface"}, "[16]": {"settings": "IV 15 mg/kg, individual mice, 15 mg/kg"}, "[17]": {"settings": "PO 30 mg/kg, individual mice, 30 mg/kg"}}, "note": "Values joined by “and” are separate entries in the source; they are usually repeats but may differ in a detail not shown here. Equal entries are not always repeated. Where two headings read alike, the source gives them in different places."}
{"smiles": "N#C[C@@]1(n2ccc(N)nc2=O)O[C@H](CO)[C@@H](O)[C@H]1O", "note": "[Compound A, (2R,3R,4S,5R)-2-(4-amino-2-oxopyrimidin-1(2H)-yl)-3,4-dihydroxy-5-(hydroxymethyl)-tetrahydrofuran-2-carbonitrile]", "values": [{"measurement": "CC50", "setting": "[1]", "result": 92, "unit": "µM"}, {"measurement": "stable in plasma up to", "setting": "[2]; hamster", "result": "up to 24 h"}, {"measurement": "stable in plasma up to", "setting": "[2]; human", "result": "up to 2 hours"}, {"measurement": "stable in plasma up to", "setting": "[2]; mouse", "result": "up to 2 hours"}, {"measurement": "CC50", "setting": "in vitro [3]", "result": "> 100", "unit": "µM"}, {"measurement": "concentration at 7 h", "setting": "[4]; CD-1, mouse, brain, iv, 15 mg/kg, IV 15 mg/kg, average of 3 mice, assuming tissue density 1 g/mL, read-out: Brain concentration, average", "result": 270, "unit": "nM"}, {"measurement": "concentration at 7 h", "setting": "[4]; CD-1, mouse, brain, iv, 15 mg/kg, IV 15 mg/kg, average of 3 mice, read-out: Brain concentration, average", "result": 71.3, "unit": "ng/g"}, {"measurement": "concentration at 7 h", "setting": "[4]; CD-1, mouse, brain, po, 30 mg/kg, PO 30 mg/kg, average of 3 mice, assuming tissue density 1 g/mL, read-out: Brain concentration, average", "result": 200, "unit": "nM"}, {"measurement": "concentration at 7 h", "setting": "[4]; CD-1, mouse, brain, po, 30 mg/kg, PO 30 mg/kg, average of 3 mice, read-out: Brain concentration, average", "result": 53.1, "unit": "ng/g"}, {"measurement": "concentration at 7 h", "setting": "[4]; CD-1, mouse, brain, po, 30 mg/kg, PO 30 mg/kg, individual mice, assuming tissue density 1 g/mL, read-out: Brain concentration", "result": 280, "unit": "nM"}, {"measurement": "concentration at 7 h", "setting": "[4]; CD-1, mouse, brain, po, 30 mg/kg, PO 30 mg/kg, individual mice, read-out: Brain concentration", "result": 73.9, "unit": "ng/g"}, {"measurement": "concentration at 7 h", "setting": "[4]; CD-1, mouse, lung, iv, 15 mg/kg, IV 15 mg/kg, average of 3 mice, assuming tissue density 1 g/mL, read-out: Lung concentration, average", "result": 1200, "unit": "nM"}, {"measurement": "concentration at 7 h", "setting": "[4]; CD-1, mouse, lung, iv, 15 mg/kg, IV 15 mg/kg, average of 3 mice, read-out: Lung concentration, average", "result": 321, "unit": "ng/g"}, {"measurement": "concentration at 7 h", "setting": "[4]; CD-1, mouse, lung, iv, 15 mg/kg, IV 15 mg/kg, individual mice, assuming tissue density 1 g/mL, read-out: Lung concentration", "result": 830, "unit": "nM"}, {"measurement": "concentration at 7 h", "setting": "[4]; CD-1, mouse, lung, iv, 15 mg/kg, IV 15 mg/kg, individual mice, read-out: Lung concentration", "result": 223, "unit": "ng/g"}, {"measurement": "concentration at 7 h", "setting": "[4]; CD-1, mouse, lung, po, 30 mg/kg, PO 30 mg/kg, average of 3 mice, assuming tissue density 1 g/mL, read-out: Lung concentration, average", "result": 4010, "unit": "nM"}, {"measurement": "concentration at 7 h", "setting": "[4]; CD-1, mouse, lung, po, 30 mg/kg, PO 30 mg/kg, average of 3 mice, read-out: Lung concentration, average", "result": 1080, "unit": "ng/g"}, {"measurement": "Brain concentration", "setting": "[4]; [16]", "result": "39.3 ng/g and 56.9 ng/g and 117.8 ng/g"}, {"measurement": "Lung concentration", "setting": "[4]; [16]", "result": "412.0 ng/g and 327.1 ng/g"}, {"measurement": "concentration at 7 h", "setting": "[4]; IV 15 mg/kg, individual mice, assuming tissue density 1 g/mL, 15 mg/kg, read-out: Brain concentration", "result": "150 nM and 210 nM and 440 nM"}, {"measurement": "concentration at 7 h", "setting": "[4]; IV 15 mg/kg, individual mice, assuming tissue density 1 g/mL, 15 mg/kg, read-out: Lung concentration", "result": "1540 nM and 1220 nM"}, {"measurement": "Plasma concentration, average", "setting": "[4]; IV 15 mg/kg, average of 3 mice", "result": 520, "unit": "nM"}, {"measurement": "Plasma concentration", "setting": "[4]; [16]", "result": "370 nM and 610 nM and 590 nM"}, {"measurement": "Brain concentration", "setting": "[4]; [17]", "result": "40.8 ng/g and 44.7 ng/g"}, {"measurement": "Lung concentration", "setting": "[4]; [17]", "result": "881.8 ng/g and 730.8 ng/g and 1,615 ng/g"}, {"measurement": "concentration at 7 h", "setting": "[4]; PO 30 mg/kg, individual mice, assuming tissue density 1 g/mL, 30 mg/kg, read-out: Brain concentration", "result": "150 nM and 170 nM"}, {"measurement": "concentration at 7 h", "setting": "[4]; PO 30 mg/kg, individual mice, assuming tissue density 1 g/mL, 30 mg/kg, read-out: Lung concentration", "result": "3290 nM and 2720 nM and 6020 nM"}, {"measurement": "Plasma concentration, average", "setting": "[4]; PO 30 mg/kg, average of 3 mice", "result": 3130, "unit": "nM"}, {"measurement": "Plasma concentration", "setting": "[4]; [17]", "result": "2090 nM and 2320 nM and 4990 nM"}, {"measurement": "CC50", "setting": "[5]", "result": 99, "unit": "µM"}, {"measurement": "EC50", "setting": "SARS-CoV-2 [6]", "result": 0.02, "unit": "µM"}, {"measurement": "EC90", "setting": "SARS-CoV-2 [6]", "result": 0.2, "unit": "µM"}, {"measurement": "CC50", "setting": "in vitro [7]", "result": "> 100", "unit": "µM"}, {"measurement": "EC50", "setting": "SARS-CoV-2 [8]; Severe acute respiratory syndrome coronavirus 2, Caco-2, read-out: Anti-SARS-CoV-2 Activity (Caco2) EC50", "result": 0.3, "unit": "µM"}, {"measurement": "EC90", "setting": "SARS-CoV-2 [8]; Severe acute respiratory syndrome coronavirus 2, Caco-2, read-out: Anti-SARS-CoV-2 Activity (Caco2) EC90", "result": 1.2, "unit": "µM"}, {"measurement": "EC50", "setting": "SARS-CoV-2 [9]", "result": 0.4, "unit": "µM"}, {"measurement": "EC90", "setting": "SARS-CoV-2 [9]", "result": 1.6, "unit": "µM"}, {"measurement": "EC50", "setting": "Omicron [10]; Severe acute respiratory syndrome coronavirus 2, Caco-2, read-out: Anti-Omicron Activity (Caco-2) EC50", "result": 1.2, "unit": "µM"}, {"measurement": "EC90", "setting": "Omicron [10]; Severe acute respiratory syndrome coronavirus 2, Caco-2, read-out: Anti-Omicron Activity (Caco-2) EC90", "result": 2.2, "unit": "µM"}, {"measurement": "EC50", "setting": "Omicron [11]", "result": "1.8 to 2.1", "unit": "µM"}, {"measurement": "EC90", "setting": "Omicron [11]", "result": "4.5 to 6.2", "unit": "µM"}, {"measurement": "CC50", "setting": "[12]", "result": "> 100", "unit": "µM"}, {"measurement": "Daily Observations", "setting": "[13]", "result": "B.A.R. Eating"}, {"measurement": "ability to eat and drink", "setting": "[13]", "result": "able to eat and drink normally"}, {"measurement": "EC50", "setting": "SARS-CoV-2 [14]; Severe acute respiratory syndrome coronavirus 2, Table 1, read-out: Anti-SARS-CoV-2 Activity (Vero) EC50", "result": 0.6, "unit": "µM"}, {"measurement": "EC90", "setting": "SARS-CoV-2 [14]; Severe acute respiratory syndrome coronavirus 2, Table 1, read-out: Anti-SARS-CoV-2 Activity (Vero) EC90", "result": 2.3, "unit": "µM"}, {"measurement": "EC50", "setting": "SARS-CoV-2 [15]", "result": 1.3, "unit": "µM"}, {"measurement": "EC90", "setting": "SARS-CoV-2 [15]", "result": 7.4, "unit": "µM"}]}
